Source: patent US20020137929A1, “1 - (3-heterocyclylphenyl) isothiourea, -isourea, -guanidine and -amidine herbicidal agents” (Intellectual Property Department, BASF Aktiengesellschaft, priority 1998, published 2002)

Assays:
[1] = test system: IPOHE (Morningglory, Ivyleaf); assay: Preemergence herbicidal evaluation; assay type: in vivo, Ipomoea hederacea; settings: rated 4-5 weeks after treatment
Procedure, shortened: (§1)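 Sown cups got a single aqueous acetone spray of test compound (roughly 0.0156–0.500 kg/ha) before seedlings emerged. Evaluation, 4–5 weeks on, used a 0–9 visual scale covering plant stand, vigor, size, malformation, chlorosis and general appearance compared with controls.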

[2] = test system: ECHORC (Watergrass (Calif.)); assay: Preemergence weed control under flooded paddy conditions; assay type: in vivo, Echinochloa oryzoides; settings: rated 3-4 weeks after treatment
Procedure, shortened: (§2)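 First, seeds or propagules go into the top 0.5 cm of silt loam; next, water is held 1.5 to 3 cm over the soil; then compound (50/50 acetone/water) is pipetted into it at about 0.0313 to 0.500 kg/ha; finally plants are rated visually 0-9 after three to four weeks.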

GALAP (Galium) = assay: Postemergence herbicidal evaluation; assay type: in vivo, Galium aparine; settings: postemergence
Procedure, shortened: (§3)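 Two-week seedlings sprayed postemergence at 40 psi; formulation: 1:1 acetone/water, 0.5% TWEEN 20; application ≈0.0156–0.500 kg/ha. Greenhouse grow-out, then 0–9 visual scoring at 4–5 weeks.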

MOOVA (Monochoria) = assay: Preemergence weed control under flooded paddy conditions; assay type: in vivo, Monochoria vaginalis; settings: rated 3-4 weeks after treatment
Procedure, shortened: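 Silt loam, seeds in top 0.5 cm; flood held 1.5-3 cm; test cpd as acetone/water 50/50 into flood water, ~0.0313-0.500 kg/ha a.i.; greenhouse 3-4 wk; visual 0-9 score vs control.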

ZEAMX (Corn, Field) = assay: Preemergence herbicidal evaluation; assay type: in vivo, Zea mays; settings: rated 4-5 weeks after treatment
Procedure, shortened: as §1

SETVI (Foxtail, Green) = assay: Postemergence herbicidal evaluation; assay type: in vivo, Setaria viridis; settings: postemergence
Procedure, shortened: as §3

ORYSAT (Rice, Tebonnet) = assay: Postemergence herbicidal evaluation; assay type: in vivo, Oryza sativa, (L.) Tebonnet; settings: postemergence
Procedure, shortened: as §3

ECHCG (Barnyardgrass) = assay: Postemergence herbicidal evaluation; assay type: in vivo, Echinochloa crus-galli; settings: postemergence
Procedure, shortened: as §3

[3] = test system: TRZAWR (Wheat, Winter, cv Riband); assay: Preemergence herbicidal evaluation; assay type: in vivo, Triticum aestivum; settings: rated 4-5 weeks after treatment
Procedure, shortened: as §1

CYPIR (Rice Flatsedge) = assay: Preemergence weed control under flooded paddy conditions; assay type: in vivo, Cyperus iria; settings: rated 3-4 weeks after treatment
Procedure, shortened: as §2

ABUTH (Velvetleaf) = assay: Postemergence herbicidal evaluation; assay type: in vivo, Abutilon theophrasti; settings: postemergence
Procedure, shortened: as §3

CN1C(=O)C(CC(=O)NO)SC1=Nc1cc(-n2c(=O)cc(C(F)(F)F)n(C)c2=O)c(F)cc1Cl (stereo not drawn) [Compound 162, 2-{{2-Chloro-5-[3,6-dihydro-3-methyl-2,6-dioxo-4-(trifluoromethyl)-1(2H)-pyrimidinyl]-4-fluorophenyl}imino}-3-methyl-4-oxo-5-thiazolidineacetohydroxamic acid]
Preemergence herbicidal rating IPOHE ([1]; 0.0156 kg/ha): 0.0
Preemergence herbicidal rating IPOHE ([1]; 0.0313 kg/ha): 0.0
Preemergence herbicidal rating IPOHE ([1]; 0.0625 kg/ha): 4.0
Preemergence herbicidal rating IPOHE ([1]; 0.1250 kg/ha): 9.0
Preemergence herbicidal rating IPOHE ([1]; 0.2500 kg/ha): 9.0
herbicidal effect rating, ECHORC ([2]; 0.0313 kg/ha): 6.0
herbicidal effect rating, ECHORC ([2]; 0.0625 kg/ha): 7.0
herbicidal effect rating, ECHORC ([2]; 0.1250 kg/ha): 8.0
herbicidal effect rating, ECHORC ([2]; 0.2500 kg/ha): 8.0
herbicidal rating GALAP (GALAP (Galium); rate 0.0156 kg/ha): 0.0
herbicidal rating GALAP (GALAP (Galium); rate 0.0313 kg/ha): 3.0
herbicidal rating GALAP (GALAP (Galium); rate 0.0625 kg/ha): 6.0
herbicidal effect rating, MOOVA (MOOVA (Monochoria); 0.0313 kg/ha): 7.0
herbicidal effect rating, MOOVA (MOOVA (Monochoria); 0.0625 kg/ha): 7.0
herbicidal effect rating, MOOVA (MOOVA (Monochoria); 0.1250 kg/ha): 7.0
herbicidal effect rating, MOOVA (MOOVA (Monochoria); 0.2500 kg/ha): 9.0
Preemergence herbicidal rating ZEAMX (ZEAMX (Corn, Field); 0.0156 kg/ha): 6.0
Preemergence herbicidal rating ZEAMX (ZEAMX (Corn, Field); 0.0313 kg/ha): 7.0
Preemergence herbicidal rating ZEAMX (ZEAMX (Corn, Field); 0.0625 kg/ha): 9.0
Preemergence herbicidal rating ZEAMX (ZEAMX (Corn, Field); 0.1250 kg/ha): 9.0
Preemergence herbicidal rating ZEAMX (ZEAMX (Corn, Field); 0.2500 kg/ha): 9.0
herbicidal rating SETVI (SETVI (Foxtail, Green); rate 0.0156 kg/ha): 0.0
herbicidal rating SETVI (SETVI (Foxtail, Green); rate 0.0313 kg/ha): 3.0
herbicidal rating SETVI (SETVI (Foxtail, Green); rate 0.0625 kg/ha): 4.0
herbicidal rating ORYSAT (ORYSAT (Rice, Tebonnet); rate 0.0156 kg/ha): 0.5
herbicidal rating ORYSAT (ORYSAT (Rice, Tebonnet); rate 0.0313 kg/ha): 1.5
herbicidal rating ORYSAT (ORYSAT (Rice, Tebonnet); rate 0.0625 kg/ha): 1.5
herbicidal rating ECHCG (ECHCG (Barnyardgrass); rate 0.0156 kg/ha): 0.0
herbicidal rating ECHCG (ECHCG (Barnyardgrass); rate 0.0313 kg/ha): 0.0
herbicidal rating ECHCG (ECHCG (Barnyardgrass); rate 0.0625 kg/ha): 0.0
Preemergence herbicidal rating TRZAWR ([3]; 0.0156 kg/ha): 0.0
Preemergence herbicidal rating TRZAWR ([3]; 0.0313 kg/ha): 3.0
Preemergence herbicidal rating TRZAWR ([3]; 0.0625 kg/ha): 7.0
Preemergence herbicidal rating TRZAWR ([3]; 0.1250 kg/ha): 7.0
Preemergence herbicidal rating TRZAWR ([3]; 0.2500 kg/ha): 9.0
herbicidal effect rating, CYPIR (CYPIR (Rice Flatsedge); 0.0313 kg/ha): 5.0
herbicidal effect rating, CYPIR (CYPIR (Rice Flatsedge); 0.0625 kg/ha): 6.0
herbicidal effect rating, CYPIR (CYPIR (Rice Flatsedge); 0.1250 kg/ha): 6.0
herbicidal effect rating, CYPIR (CYPIR (Rice Flatsedge); 0.2500 kg/ha): 9.0
herbicidal rating ABUTH (ABUTH (Velvetleaf); rate 0.0156 kg/ha): 9.0
herbicidal rating ABUTH (ABUTH (Velvetleaf); rate 0.0313 kg/ha): 9.0
herbicidal rating ABUTH (ABUTH (Velvetleaf); rate 0.0625 kg/ha): 9.0
